System: Mouse lymphoma TK cells
Assay: TK suspension cell assay, treatment with dilutions of BAK and ZDBC
Format: cell-based
Conditions: 72±2 hours; for dose dependence of the decrease in cell growth: serial dilutions, 5% or 10% FBS
Method: For each test material, data were collected and the mean and SD were calculated using Excel. The IC50 was calculated using SigmaPlot. Determination of cytotoxicity and test acceptance criteria followed those described in JMHLW and ISO 10993-5: The relative colony-forming rate/relative growth rate of positive control (reference material B) should be equal or less than 10%, and negative control (Wako disk) should be equal or greater than 80%.
Relative cell growth rate (%)=[100×(Test cell concentration at time 72 hours−mean of blank cell concentration at time 0)÷(mean of blank cell concentration at time 72 hours−mean of blank cell concentration at time 0)]. The results are expressed as the mean±standard deviation (SD) from three independent studies and each study has six replicates for each lens.
Phosphate buffer (Cat. #SH30028.02, HyClone, Logan, Utah) was used for dilutions of BAK (1.25, 2.5, 5, 10, 25, and 50 parts per million) (Cat. #B1068, Spectrum Chemical, New Brunswick, N.J.). A total of 900 μL of 2.2×10^4 cells/mL TK cells in assay medium (RPMIFBS10 or RPMIFBS05) were seeded in a 24-well plate and then treated with different dilutions of BAK (100 μL) to achieve final concentrations of 0.125, 0.25, 0.5, 1.0, 2.5, and 5 ppm. Phosphate buffer (100 μL)-treated cells served as a blank control, reference material B (diameter (ϕ): 14 mm) as a positive control, and Wako tissue culture plastic disk served a negative control. After 72±2 hours incubation, 600 μL cells were mixed and transferred into the counter vial. The relative cell growth rate was determined and calculated as described above. The results are expressed as the mean±SD based on three replicates.
DMSO was used to dissolve ZDBC powder (Cat. #Z1031, Spectrum Chemical, New Brunswick, N.J.) to make […], 0.1, 0.2, 0.4, 0.8, and 2 mg/mL dilutions. Next, 995 μL of 2.0×10^4 cells/mL TK cells in assay medium (either RPMIFBS10 or RPMIFBS05) were seeded in a 24-well plate and treated with 5 μL of different ZDBC dilutions to achieve final concentrations of 0.25, 0.5, 1, 2, 4, and 10 μg/mL. DMSO (5 μL)-treated cells served as a blank control, reference material B (diameter (ϕ): 14 mm) as a positive control, and Wako tissue culture plastic disk served a negative control. After 72±2 hours incubation, 600 μL cells were mixed and transferred into the counter vial. The relative cell growth rate was determined and calculated as described above. The results are expressed as the mean±SD based on three replicates.

benzalkonium chloride [BAK]
IC50 (relative cell growth rate) (5% FBS): 0.55 ppm
IC50 (relative cell growth rate) (10% FBS): 0.59 ppm
cytotoxicity (at 0.25 and 0.125 ppm): not cytotoxic
cell growth inhibition as compared to the blank control (at 5, 2.5, 1, and 0.5 ppm): significant cell growth inhibition
dose dependence of the decrease in cell growth: dose-dependent decrease in cell growth

zinc dibutyldithiocarbamate [ZDBC]
IC50 (relative cell growth rate) (5% FBS medium): 2.0 µg/mL
IC50 (relative cell growth rate) (10% FBS medium): 4.5 µg/mL
dose dependence of the decrease in cell growth: dose-dependent decrease in cell growth
